Source: paper PMC5218480 (PLoS ONE, 2017)

Tested on: MV-4-11 cells
Assay: Gene expression microarray analysis (Affymetrix PrimeView) and GSEA
Type: cell-based, human
Design: RFU PODN (11730768_x_at) / Fold change /veh PODN (11730768_x_at) / RFU LINC00158 (11744669_a_at) / Fold change /veh LINC00158 (11744669_a_at) / RFU DUSP10 (11751237_a_at) / Fold change /veh DUSP10 (11751237_a_at) / RFU ID3 (11757404_x_at) / Fold change /veh ID3 (11757404_x_at) / RFU PLEKHG5 (11737974_s_at) / Fold change /veh PLEKHG5 (11737974_s_at) / RFU LRRC4B (11730491_at) / Fold change /veh LRRC4B (11730491_at) / RFU GIMAP4 (11747438_a_at) / Fold change /veh GIMAP4 (11747438_a_at) / RFU KRT8 (11758183_x_at) / Fold change /veh KRT8 (11758183_x_at) / RFU CNN1 (11734310_a_at) / Fold change /veh CNN1 (11734310_a_at) / RFU VPS37D (11726825_at) / Fold change /veh VPS37D (11726825_at) / RFU C10orf10 (11716522_x_at) / Fold change /veh C10orf10 (11716522_x_at) / RFU KIR2DL2 /// KIR2DL4 /// KIR2DL5A /// KIR2DL5B /// KIR2DS1 /// KIR2DS2 /// KIR2DS3 /// KIR2DS4 /// KIR3DL3 /// KIR3DL3 /// KIR3DS1 (11738374_at) / Fold change /veh KIR2DL2 /// KIR2DL4 /// KIR2DL5A /// KIR2DL5B /// KIR2DS1 /// KIR2DS2 /// KIR2DS3 /// KIR2DS4 /// KIR3DL3 /// KIR3DL3 /// KIR3DS1 (11738374_at) / RFU C1QL1 (11718748_at) / Fold change /veh C1QL1 (11718748_at) / RFU TMPRSS4 (11747572_a_at) / Fold change /veh TMPRSS4 (11747572_a_at) / RFU HAMP (11756126_x_at) / Fold change /veh HAMP (11756126_x_at) / RFU RNFT2 (11725882_a_at) / Fold change /veh RNFT2 (11725882_a_at) / RFU NR4A2 (11747474_a_at) / Fold change /veh NR4A2 (11747474_a_at) / RFU ABCC12 (11746883_a_at) / Fold change /veh ABCC12 (11746883_a_at) / RFU TMEM136 (11760407_x_at) / Fold change /veh TMEM136 (11760407_x_at) / RFU CLDN22 /// WWC2 (11732394_at) / Fold change /veh CLDN22 /// WWC2 (11732394_at) / RFU HLA-DPB1 (11760878_x_at) / Fold change /veh HLA-DPB1 (11760878_x_at) / RFU SPINT1 (11716480_a_at) / Fold change /veh SPINT1 (11716480_a_at) / RFU GAP43 (11754022_s_at) / Fold change /veh GAP43 (11754022_s_at) / RFU A4GNT (11735810_at) / Fold change /veh A4GNT (11735810_at) / RFU PRB3 (11715151_x_at) / Fold change /veh PRB3 (11715151_x_at) / RFU TUBB4B (11761932_at) / Fold change /veh TUBB4B (11761932_at) / RFU CAPN14 (11732068_a_at) / Fold change /veh CAPN14 (11732068_a_at) / RFU TMCC2 (11721928_a_at) / Fold change /veh TMCC2 (11721928_a_at) / RFU IRGQ (11745062_a_at) / Fold change /veh IRGQ (11745062_a_at) / RFU FAM174B (11720279_a_at) / Fold change /veh FAM174B (11720279_a_at) / RFU TMPRSS4 (11748680_a_at) / Fold change /veh TMPRSS4 (11748680_a_at) / RFU FAM212B (11763350_a_at) / Fold change /veh FAM212B (11763350_a_at) / RFU PLEKHG5 (11743358_a_at) / Fold change /veh PLEKHG5 (11743358_a_at) / RFU ZSCAN30 (11745921_a_at) / Fold change /veh ZSCAN30 (11745921_a_at) / RFU CMKLR1 (11741424_a_at) / Fold change /veh CMKLR1 (11741424_a_at) / RFU LOC101060620 /// MAPK8IP1 (11723275_at) / Fold change /veh LOC101060620 /// MAPK8IP1 (11723275_at) / RFU SPTSSB (11747773_x_at) / Fold change /veh SPTSSB (11747773_x_at) / RFU PRSS12 (11739890_at) / Fold change /veh PRSS12 (11739890_at) / RFU BIN1 (11741810_x_at) / Fold change /veh BIN1 (11741810_x_at) / RFU WNT11 (11732464_a_at) / Fold change /veh WNT11 (11732464_a_at) / RFU C10orf10 (11716521_a_at) / Fold change /veh C10orf10 (11716521_a_at) / RFU C5orf56 (11738089_at) / Fold change /veh C5orf56 (11738089_at) / RFU CYB561 (11721691_x_at) / Fold change /veh CYB561 (11721691_x_at) / RFU ANKRD19P (11752326_a_at) / Fold change /veh ANKRD19P (11752326_a_at) / RFU OR2T12 /// OR2T33 /// OR2T8 (11738714_s_at) / Fold change /veh OR2T12 /// OR2T33 /// OR2T8 (11738714_s_at) / RFU VCAN (11748164_a_at) / Fold change /veh VCAN (11748164_a_at) / RFU JSRP1 (11732532_at) / Fold change /veh JSRP1 (11732532_at) / RFU KRTAP10-11 (11738290_x_at) / Fold change /veh KRTAP10-11 (11738290_x_at) / RFU MYO3A (11730013_a_at) / Fold change /veh MYO3A (11730013_a_at) / RFU EBF3 (11725865_a_at) / Fold change /veh EBF3 (11725865_a_at) / RFU CAMK2N1 (11719241_x_at) / Fold change /veh CAMK2N1 (11719241_x_at) / RFU C5orf56 (11738088_a_at) / Fold change /veh C5orf56 (11738088_a_at) / RFU OLFML3 (11715873_a_at) / Fold change /veh OLFML3 (11715873_a_at) / RFU LOC100653217 /// NTM (11731650_a_at) / Fold change /veh LOC100653217 /// NTM (11731650_a_at) / RFU MAPK11 (11762145_a_at) / Fold change /veh MAPK11 (11762145_a_at) / RFU FIZ1 (11724087_x_at) / Fold change /veh FIZ1 (11724087_x_at) / RFU OASL (11726364_x_at) / Fold change /veh OASL (11726364_x_at) / RFU SOX15 (11748057_x_at) / Fold change /veh SOX15 (11748057_x_at) / RFU CD79A (11719716_a_at) / Fold change /veh CD79A (11719716_a_at) / RFU HIST1H1D (11736915_at) / Fold change /veh HIST1H1D (11736915_at) / RFU CASKIN2 (11723855_a_at) / Fold change /veh CASKIN2 (11723855_a_at) / RFU LOC730098 (11760151_x_at) / Fold change /veh LOC730098 (11760151_x_at) / RFU OR4N2 (11742367_at) / Fold change /veh OR4N2 (11742367_at) / RFU PRRT2 (11749266_a_at) / Fold change /veh PRRT2 (11749266_a_at) / RFU SNX32 (11753110_a_at) / Fold change /veh SNX32 (11753110_a_at) / RFU CDHR5 (11726645_a_at) / Fold change /veh CDHR5 (11726645_a_at) / RFU RCAN1 (11760418_a_at) / Fold change /veh RCAN1 (11760418_a_at) / RFU FAM167A (11723789_a_at) / Fold change /veh FAM167A (11723789_a_at) / RFU FAM26E (11764081_at) / Fold change /veh FAM26E (11764081_at) / RFU ISYNA1 (11749810_s_at) / Fold change /veh ISYNA1 (11749810_s_at) / RFU ACY1 (11761880_at) / Fold change /veh ACY1 (11761880_at) / RFU 11764098_at / Fold change /veh 11764098_at / RFU SAMD14 (11745864_x_at) / Fold change /veh SAMD14 (11745864_x_at) / RFU NPB (11741838_a_at) / Fold change /veh NPB (11741838_a_at) / RFU TMPRSS6 (11731388_a_at) / Fold change /veh TMPRSS6 (11731388_a_at) / RFU KRTAP10-2 (11738614_at) / Fold change /veh KRTAP10-2 (11738614_at) / RFU ARHGAP8 /// PRR5-ARHGAP8 (11727945_x_at) / Fold change /veh ARHGAP8 /// PRR5-ARHGAP8 (11727945_x_at) / RFU KRTAP5-7 /// NADSYN1 (11734609_at) / Fold change /veh KRTAP5-7 /// NADSYN1 (11734609_at) / RFU RASL12 (11751679_a_at) / Fold change /veh RASL12 (11751679_a_at) / RFU CDKN2B (11736163_a_at) / Fold change /veh CDKN2B (11736163_a_at) / RFU PRF1 (11729649_at) / Fold change /veh PRF1 (11729649_at) / RFU, ZNF638 /// ZNF638-IT1 / Fold change vs veh, ZNF638 /// ZNF638-IT1 / RFU, PANK3 / Fold change vs veh, PANK3 / RFU, SH3YL1 / Fold change vs veh, SH3YL1 / RFU, ZEB2 / Fold change vs veh, ZEB2 / RFU, NRIP1 / Fold change vs veh, NRIP1 / RFU, PTTG1IP / Fold change vs veh, PTTG1IP / RFU, CAPN2 / Fold change vs veh, CAPN2 / RFU, MED14 / Fold change vs veh, MED14 / RFU, SNORA58 / Fold change vs veh, SNORA58 / RFU, C1orf63 / Fold change vs veh, C1orf63 / RFU, LRRFIP1 / Fold change vs veh, LRRFIP1 / RFU, NDUFAF7 / Fold change vs veh, NDUFAF7 / RFU, SLC12A2 / Fold change vs veh, SLC12A2 / RFU, IBTK / Fold change vs veh, IBTK / RFU, ESF1 / Fold change vs veh, ESF1 / Fold change vs veh, TMEM50B / RFU, TAOK1 / Fold change vs veh, TAOK1 / RFU, ACBD3 / Fold change vs veh, ACBD3 / RFU, TMA16 / Fold change vs veh, TMA16 / RFU, RWDD3 / Fold change vs veh, RWDD3 / RFU, BCAT1 / Fold change vs veh, BCAT1 / RFU, EDEM3 / Fold change vs veh, EDEM3 / RFU, TMEM33 / Fold change vs veh, TMEM33 / RFU, WDR75 / Fold change vs veh, WDR75 / RFU, AHCTF1 / Fold change vs veh, AHCTF1 / RFU, TFRC / Fold change vs veh, TFRC / RFU, ZDHHC17 / Fold change vs veh, ZDHHC17 / RFU, NOM1 / Fold change vs veh, NOM1 / RFU, ARL8B / Fold change vs veh, ARL8B / RFU, ZBTB11 / Fold change vs veh, ZBTB11 / RFU, TAMM41 / Fold change vs veh, TAMM41 / RFU, KIAA1704 /// LOC100996395 / Fold change vs veh, KIAA1704 /// LOC100996395 / RFU, ING1 / Fold change vs veh, ING1 / RFU, TRMT61B / Fold change vs veh, TRMT61B / RFU, FUBP3 / Fold change vs veh, FUBP3 / RFU, TP53 / Fold change vs veh, TP53 / RFU, TNKS2 / Fold change vs veh, TNKS2 / RFU, ZFP14 / Fold change vs veh, ZFP14 / RFU, ACTR2 / Fold change vs veh, ACTR2 / RFU, PPP3R1 / Fold change vs veh, PPP3R1 / RFU, PIK3R1 / Fold change vs veh, PIK3R1 / RFU, HNRNPA1 / Fold change vs veh, HNRNPA1 / RFU, RNF170 / Fold change vs veh, RNF170 / RFU, ZNF28 / Fold change vs veh, ZNF28 / RFU, RNGTT / Fold change vs veh, RNGTT / RFU, OGT / Fold change vs veh, OGT / RFU, BRD1 / Fold change vs veh, BRD1 / RFU, MARS / Fold change vs veh, MARS / RFU, ZNF655 / Fold change vs veh, ZNF655 / RFU, FAHD1 / Fold change vs veh, FAHD1 / RFU, BDP1 / Fold change vs veh, BDP1 / RFU, LRRCC1 / Fold change vs veh, LRRCC1 / RFU, ARID1A / Fold change vs veh, ARID1A / RFU, ZNF146 / Fold change vs veh, ZNF146 / RFU, ZNF330 / Fold change vs veh, ZNF330 / RFU, GPN3 / Fold change vs veh, GPN3 / RFU, C9orf123 / Fold change vs veh, C9orf123 / RFU, N4BP2L2 / Fold change vs veh, N4BP2L2 / RFU, ARFIP1 / Fold change vs veh, ARFIP1 / RFU, FAM179B / Fold change vs veh, FAM179B / RFU, BCL10 / Fold change vs veh, BCL10 / RFU, UHRF1BP1L / Fold change vs veh, UHRF1BP1L / RFU, BET1 / Fold change vs veh, BET1 / RFU, CNOT2 / Fold change vs veh, CNOT2 / RFU, ZNF268 / Fold change vs veh, ZNF268 / Fold change vs veh, ZNF507 / RFU, DGCR2 / Fold change vs veh, DGCR2 / RFU, WDSUB1 / Fold change vs veh, WDSUB1 / Fold change vs veh, HSP90B1 /// MIR3652 / RFU, ADSS / Fold change vs veh, ADSS / RFU, GK / Fold change vs veh, GK / RFU, ZNF148 / Fold change vs veh, ZNF148 / RFU, TAF9 / Fold change vs veh, TAF9 / RFU, SLC1A5 / Fold change vs veh, SLC1A5 / RFU, SLMO2 / Fold change vs veh, SLMO2 / RFU, ABCC4 / Fold change vs veh, ABCC4 / RFU, LOC101060439 /// RAP1B / Fold change vs veh, LOC101060439 /// RAP1B / RFU, RFX7 / Fold change vs veh, RFX7 / RFU, GTPBP10 / Fold change vs veh, GTPBP10 / RFU, CNEP1R1 / Fold change vs veh, CNEP1R1 / RFU, BIVM-ERCC5 /// ERCC5 / Fold change vs veh, BIVM-ERCC5 /// ERCC5 / RFU, ILF3 / Fold change vs veh, ILF3 / RFU 11762660_at / Fold change /veh 11762660_at / RFU VCAN (11757783_s_at) / Fold change /veh VCAN (11757783_s_at) / RFU DDX43 (11728927_at) / Fold change /veh DDX43 (11728927_at) / RFU KRT8 (11758188_x_at) / Fold change /veh KRT8 (11758188_x_at) / RFU NKD1 (11759106_at) / Fold change /veh NKD1 (11759106_at) / RFU SRD5A1 (11742802_a_at) / Fold change /veh SRD5A1 (11742802_a_at) / RFU TPSAB1 /// TPSB2 (11721975_s_at) / Fold change /veh TPSAB1 /// TPSB2 (11721975_s_at) / RFU GSTM3 (11746129_a_at) / Fold change /veh GSTM3 (11746129_a_at) / RFU IL23R (11737362_x_at) / Fold change /veh IL23R (11737362_x_at) / RFU TMEM51 (11727254_a_at) / Fold change /veh TMEM51 (11727254_a_at) / RFU PIWIL2 (11732686_x_at) / Fold change /veh PIWIL2 (11732686_x_at) / RFU ORM1 (11744905_x_at) / Fold change /veh ORM1 (11744905_x_at) / RFU CCDC152 (11743942_at) / Fold change /veh CCDC152 (11743942_at) / RFU ECM1 (11717891_a_at) / Fold change /veh ECM1 (11717891_a_at) / RFU IL23R (11748794_a_at) / Fold change /veh IL23R (11748794_a_at) / RFU TNFAIP8L3 (11732012_x_at) / Fold change /veh TNFAIP8L3 (11732012_x_at) / RFU MBOAT4 (11741988_at) / Fold change /veh MBOAT4 (11741988_at) / RFU 11764193_at / Fold change /veh 11764193_at / RFU TMEM53 (11763286_at) / Fold change /veh TMEM53 (11763286_at) / RFU MAGEB2 (11727129_at) / Fold change /veh MAGEB2 (11727129_at) / RFU TMEM200A (11744735_a_at) / Fold change /veh TMEM200A (11744735_a_at) / RFU CCDC152 (11751479_a_at) / Fold change /veh CCDC152 (11751479_a_at) / RFU FAM211A (11726209_a_at) / Fold change /veh FAM211A (11726209_a_at) / RFU RGS16 (11746705_a_at) / Fold change /veh RGS16 (11746705_a_at) / RFU VCAN (11755009_s_at) / Fold change /veh VCAN (11755009_s_at) / RFU RHOB (11743442_s_at) / Fold change /veh RHOB (11743442_s_at) / RFU RGS16 (11720943_a_at) / Fold change /veh RGS16 (11720943_a_at) / RFU RGS16 (11720944_at) / Fold change /veh RGS16 (11720944_at) / RFU, VPS4B / Fold change vs veh, VPS4B / RFU, CREB1 / Fold change vs veh, CREB1 / RFU, DNAJC13 / Fold change vs veh, DNAJC13 / RFU, GNAQ / Fold change vs veh, GNAQ / RFU, CDK5R1 / Fold change vs veh, CDK5R1 / RFU, ZRANB3 / Fold change vs veh, ZRANB3 / RFU, CUL4A / Fold change vs veh, CUL4A / RFU, CCNY / Fold change vs veh, CCNY / RFU, UFL1 / Fold change vs veh, UFL1 / RFU, COG3 / Fold change vs veh, COG3 / RFU, DIAPH2 / Fold change vs veh, DIAPH2 / RFU, SKA2 / Fold change vs veh, SKA2 / RFU, AFF3 / Fold change vs veh, AFF3 / RFU, LMF1 / Fold change vs veh, LMF1 / RFU, IPO11 / Fold change vs veh, IPO11 / RFU, DFFB / Fold change vs veh, DFFB / RFU, FOXP1 / Fold change vs veh, FOXP1 / RFU, CARD8 / Fold change vs veh, CARD8 / RFU, STRN3 / Fold change vs veh, STRN3 / RFU, ADK / Fold change vs veh, ADK / RFU, RASSF2 / Fold change vs veh, RASSF2 / RFU, WIPF1 / Fold change vs veh, WIPF1 / RFU, LARP1B / Fold change vs veh, LARP1B / RFU, RASA1 / Fold change vs veh, RASA1 / RFU, RB1 / Fold change vs veh, RB1 / RFU, PPFIA1 / Fold change vs veh, PPFIA1 / RFU, MAT2A / Fold change vs veh, MAT2A / RFU, CCT5 / Fold change vs veh, CCT5 / RFU, WDR92 / Fold change vs veh, WDR92 / RFU, CUX1 / Fold change vs veh, CUX1 / RFU, TTC7A / Fold change vs veh, TTC7A / RFU, TMEM135 / Fold change vs veh, TMEM135 / RFU, DEPTOR / Fold change vs veh, DEPTOR / RFU, CPM / Fold change vs veh, CPM / RFU, DNAJB6 / Fold change vs veh, DNAJB6 / RFU, CACNA2D3 / Fold change vs veh, CACNA2D3 / RFU, DTX4 / Fold change vs veh, DTX4 / RFU, TFCP2 / Fold change vs veh, TFCP2 / RFU, GMCL1 /// GMCL1P1 / Fold change vs veh, GMCL1 /// GMCL1P1 / RFU, AEBP2 / Fold change vs veh, AEBP2 / RFU, SNHG1 /// SNORD22 /// SNORD25 /// SNORD26 /// SNORD27 /// SNORD28 /// SNORD29 /// SNORD31 / Fold change vs veh, SNHG1 /// SNORD22 /// SNORD25 /// SNORD26 /// SNORD27 /// SNORD28 /// SNORD29 /// SNORD31 / Fold change (Aza/veh), C12orf56 (ProbeSet 11735607_a_at) / Fold change (ACY-1035/veh), C12orf56 (ProbeSet 11735607_a_at) / Fold change (Aza/veh), FGFR1OP (ProbeSet 11751329_s_at) / Fold change (ACY-1035/veh), FGFR1OP (ProbeSet 11751329_s_at) / Fold change (Aza/veh), VPS36 (ProbeSet 11739960_a_at) / Fold change (ACY-1035/veh), VPS36 (ProbeSet 11739960_a_at) / RFU SYPL1 (11715823_x_at) / Fold change /veh SYPL1 (11715823_x_at) / RFU IGFBP7 (11715501_s_at) / Fold change /veh IGFBP7 (11715501_s_at) / RFU REEP3 (11722064_at) / Fold change /veh REEP3 (11722064_at) / RFU IGLL1 (11728026_x_at) / Fold change /veh IGLL1 (11728026_x_at): dose or concentration left out as unconfirmed
Conditions: ProbeSet 11740781_a_at; LIST B

Nc1ccc(-c2cccs2)cc1NC(=O)c1ccc2c(c1)cc(C1CC1)n2CCN1CCOCC1 [ACY-1035]
RFU, ILF3: 238.85 RFU
